In data set [1] the test system is BxPC-3 human pancreatic adenocarcinoma cells. Briefly: cells. Type of data set: cell-based. Particulars: BxPC-3, killing 4 days; for EC50: Homo sapiens, BXPC-3, 96 h.
In data set [2] the test system is NCI-N87 human gastric cancer cells. Briefly: cells. The class given is cell-based. The conditions noted are these: NCI-N87, killing 4 days; for EC50: Homo sapiens, NCI-N87, 96 h.
Data set [3] concerns HT29 human colon cancer cells. Nature of the data set: Cell killing activity of camptothecins (CCK-8). Type of data set: cell-based. Particulars: HT29, killing 4 days; for EC50: Homo sapiens, HT-29, 96 h. As to the method:
(§1) KB oral epithelial cancer cells (purchased from: ATCC) were cultured in DMEM medium supplemented with 10% FBS; NCI-N87 human gastric cancer cells (purchased from: ATCC) were cultured in RPMI1640 medium supplemented with 10% FBS; HT29 human colon cancer cells (purchased from: ATCC) were cultured in RPMI1640 medium supplemented with 10% FBS; and BxPC-3 human pancreatic adenocarcinoma cells (purchased from: ATCC) were cultured in RPMI1640 medium supplemented with 10% FBS.
(§2) Using corresponding media described above and in cell plates, the density of KB cells was adjusted to 2×10^4/mL; the density of NCI-N87 cells was adjusted to 5×10^4/mL; the density of HT29 cells was adjusted to 5×10^4/mL, and the cells were plated onto 96-well transparent flat bottom plates, at 100 µL/well, and cultured overnight; and the density of BxPC-3 cells was adjusted to 5×10^4/mL.
(§3) Samples to be detected were diluted to 20 µM with corresponding media, then 5-fold gradient dilution was performed, and 9 concentrations were obtained. A well having cells but with no any sample added was set as the well showing maximum cell growth; and a well having no cells was set as the well of medium background. The diluted samples were added into the cell plates, at 100 µL/well, which were then incubated in a CO2 incubator for 96 hours. After the incubation, CCK-8 (purchased from: DOJINDO LABORATORIES) prepared beforehand was added into the plates, at 20 µL/well, and after further 3 hours of incubation in the CO2 incubator, OD values at 450 nm were read on a microplate reader.
(§4) Data obtained was fitted to a four-parameter curve using software Prism7, and equation for calculating maximum killing is: maximum killing (%) = 1 - (OD450 value of the well showing maximum killing - OD450 value of the well of medium background) / (OD450 value of the well showing maximum cell growth - OD450 value of the cell of medium background) × 100%. Table 6. Results of comparative study on the activity of camptothecins

For data set [4], the system named is KB oral epithelial cancer cells. Briefly: Cell killing activity of camptothecins (CCK-8). The class given is cell-based. Particulars: killing 4 days; for EC50: 96 h. As to the method: as §1, §2, §3, §4
The conditions of data set [5]: Phase I, advanced solid tumors, reported 2021; cited from earlier work.
Data set [6] deals with T1, human B7-H3 naturally expressed on the surface of SKOV3 cells (human, UniProt Q5ZPR3 29-534).
T1 construct: whole, on cells; also called surface antigen of SKOV3 cells; B7-H3 on the surface of SKOV3 cells
T1 sequence (looked up): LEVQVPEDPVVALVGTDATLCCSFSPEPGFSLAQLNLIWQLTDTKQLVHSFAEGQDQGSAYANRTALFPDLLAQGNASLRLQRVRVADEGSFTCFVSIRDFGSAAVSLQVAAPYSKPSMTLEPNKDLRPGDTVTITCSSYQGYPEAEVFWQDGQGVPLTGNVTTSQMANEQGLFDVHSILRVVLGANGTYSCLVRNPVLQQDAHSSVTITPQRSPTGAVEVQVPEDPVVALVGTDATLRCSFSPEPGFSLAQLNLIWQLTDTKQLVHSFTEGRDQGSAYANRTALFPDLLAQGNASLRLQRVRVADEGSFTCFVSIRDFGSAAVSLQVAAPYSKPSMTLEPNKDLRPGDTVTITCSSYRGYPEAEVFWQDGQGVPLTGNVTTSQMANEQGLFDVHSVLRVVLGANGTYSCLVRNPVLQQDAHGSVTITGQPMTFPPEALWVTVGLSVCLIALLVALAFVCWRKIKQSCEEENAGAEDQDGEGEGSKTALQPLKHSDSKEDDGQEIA
Briefly: flow cytometry (MFI) on SKOV3 cells naturally expressing human B7-H3. On the technique in general: In flow cytometry, cells or beads pass a laser one at a time.

The target of data set [7] is T2, Recombinant human B7-H3 extracellular domain protein (UniProtKB-Q5ZPR3, amino acids 1-461, C-His tag) (human, UniProt Q5ZPR3 29-461).
T2 construct: range 1-461; The printed range 1-461 starts at residue 1 and so covers the signal peptide; also called human B7-H3 ECD-His; recombinant human B7-H3 ECD protein; not shown: C-terminal His tag
T2 sequence (looked up): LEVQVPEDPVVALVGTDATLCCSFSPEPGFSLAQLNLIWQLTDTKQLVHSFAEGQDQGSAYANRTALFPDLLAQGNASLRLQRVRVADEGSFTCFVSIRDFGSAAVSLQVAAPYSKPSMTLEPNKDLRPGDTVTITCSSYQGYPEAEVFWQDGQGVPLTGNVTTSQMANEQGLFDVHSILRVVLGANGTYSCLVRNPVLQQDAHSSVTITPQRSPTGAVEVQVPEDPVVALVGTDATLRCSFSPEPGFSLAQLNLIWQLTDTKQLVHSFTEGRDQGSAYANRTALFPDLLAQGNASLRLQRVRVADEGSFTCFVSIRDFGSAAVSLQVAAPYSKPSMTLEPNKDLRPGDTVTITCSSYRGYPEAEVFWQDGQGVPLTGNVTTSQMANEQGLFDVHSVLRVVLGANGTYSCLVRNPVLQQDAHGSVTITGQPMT
Nature of the data set: BLI (ForteBio Octet QKe), antibody on AHC probes, 60 nM antigen, 1:1 Langmuir fit.

Numbering of substitutions follows the chain as printed. “And” between values parts separate entries of the source, which are not always exact repeats. Equal values may be shown once.

Consider `CC[C@@]1(O)C(=O)OCc2c1cc1n(c2=O)Cc2c-1nc1ccc(N)c3c1c2C(F)(F)CO3` [Compound 31], for which the EC50 (commonly the concentration needed to bring the measured effect to its halfway point) was 4.42 nM in data set [1] and 8.59 nM in data set [2].
The matching figures for `CC[C@@]1(O)C(=O)OCc2c1cc1n(c2=O)Cc2c-1nc1ccc(N)c3c1c2CCS3` [Compound 12]: 2.15 nM and 8.43 nM.
The matching figures for `CC[C@@]1(O)C(=O)OCc2c1cc1n(c2=O)Cc2c-1nc1cc(F)c(N)c3c1c2CCO3` [Compound 18]: 1.45 nM and 1.57 nM.
In the case of `CC[C@@]1(O)C(=O)OCc2c1cc1n(c2=O)Cc2c-1nc1ccc(N)c3c1c2CCS3(=O)=O` [Compound 15], the figures for the EC50 in data set [1] and in data set [2] were 79.6 nM and 178 nM, respectively.
Consider `CC[C@@]1(O)C(=O)OCc2c1cc1n(c2=O)Cc2c-1nc1ccc(N)c3c1c2CC[S@@+]3[O-]` [Compound 14-P2], for which the EC50 in data set [2] was 2000 nM.
As to `CC[C@@]1(O)C(=O)OCc2c1cc1n(c2=O)Cc2c-1nc1cc(F)c(N)c3c1c2C(F)(F)CO3` [Compound 19], the EC50 in data set [1] came out at 1.4 nM. In data set [2], the EC50 came to 0.864 nM and the “Maximum Killing (%)” value is recorded as 93.5%.
As to `CC[C@@]1(O)C(=O)OCc2c1cc1n(c2=O)Cc2c-1nc1ccc(N)c3c1c2CCC3` [MWC-1, reference compound], the “Maximum Killing (%)” value is 89% and 89.9% in data set [3]; 98.6% in data set [4]; 93.3% in data set [2]. In data set [4], this molecule had an EC50 of 15.7 nM.
For the molecule `CC[C@@]1(O)C(=O)OCc2c1cc1n(c2=O)Cc2c-1nc1ccc(N)c3c1c2C1CC1C3` (stereo partly shown) [Compound 7], the figures for the EC50 in data set [1] and in data set [2] were 11.4 nM and 3.31 nM, respectively.
Take `CC[C@@]1(O)C(=O)OCc2c1cc1n(c2=O)Cc2c-1nc1cc(F)c(C)c3c1c2[C@@H](NC(=O)CO)CC3` [Dxd, reference compound]: the “Maximum Killing (%)” value in data set [1] is given as 93.1%; in data set [2] it was 93.3%. The EC50 in data set [1] was determined as 33.7 nM; in data set [3], 133 nM; in data set [4] it was 138 nM.
Turning to `CC[C@@]1(O)C(=O)OCc2c1cc1n(c2=O)Cc2c-1nc1ccc(N)c3c1c2CC[S@+]3[O-]` [Compound 14-P1], in data set [2], the EC50 was 503 nM.
In the case of `CC[C@@]1(O)C(=O)OCc2c1cc1n(c2=O)Cc2c-1nc1ccc(N)c3c1c2C(C)(C)CC3` [Compound 1], the “Maximum Killing (%)” value in data set [3] worked out at 91.9%; in data set [4] it was 97.6%. The figures for the EC50 in data set [3], in data set [4] and in data set [2] were 43.4 nM, 52.3 nM and 21.9 nM, respectively.
As for `CC[C@@]1(O)C(=O)OCc2c1cc1n(c2=O)Cc2c-1nc1cc(F)c(N)c3c1c2C(F)(F)CS3` [Compound 27], the EC50 in data set [1] is 1.52 nM; in data set [2], 1.75 nM.
The corresponding values for `CC[C@@]1(O)C(=O)OCc2c1cc1n(c2=O)Cc2c-1nc1cc(F)c(N)c3c1c2CCS3` [Compound 26] are 1.11 nM and 1.02 nM.

B1: MGC018: MacroGenics ADC: anti-B7-H3 humanized IgG1 monoclonal antibody conjugated to Duocarmycin (DUBA) via a cleavable linker, average DAR 2.7 (conjugate, chains of the INN, looked up)
VH: EVQLVESGGGLVKPGGSLRLSCAASGFTFSSYGMSWVRQAPGKGLEWVATINSGGSNTYYPDSLKGRFTISRDNAKNSLYLQMNSLRAEDTAVYYCARHDGGAMDYWGQGTTVTVSS
VL: DIQMTQSPSSLSASVGDRVTITCRASESIYSYLAWYQQKPGKAPKLLVYNTKTLPEGVPSRFSGSGSGTDFTLTISSLQPEDFATYYCQHHYGTPPWTFGQGTRLEIK
modifications: duocarmycin (DUBA) payload, cleavable linker, DAR 2.7
B1: in data set [5], the “Grade 3 and higher treatment-related adverse events (TRAEs)” value is listed as 50%; the “patients with Grade 3 and higher treatment-related adverse events (TRAEs)” value is reported as 43 patients; the “severe TRAE neutropenia” value is reported as 22.1%; the “severe TRAE thrombocytopenia” value is 7%.

B2: hz10B4 (antibody, V domains shown)
VH: EVQLVQSGAEVKKPGASVKVSCKASGYTFTEYIMHWVRQAPGQGLEWMGGINPASGGTTYNQKFKGRVTMTRDTSISTAYMELSRLRSEDTAVYYCARKGKDYFDWYFDVWGQGTTVTVSS
VL: DIQLTQSPSSLSASVGDRVTMTCSASSSVSYMHWYQQKPGKAPKLLIYDTSKLASGVPSRFSGSGSGTDFTLTISSLQPEDFATYYCQQWSSNPLTFGGGTKVEIK
notes: Humanized anti-B7-H3 antibody prepared by the method of CN114573695A; also called parent hz10B4; hz10B4-VH×hz10B4-VL
In turn, B2 yielded an EC50 in data set [6] of 1.58 nM. Besides, in data set [7], the Kd (usually a measure of binding affinity in units of concentration) amounted to 0.216 nM; the koff (in general, the first-order rate constant of dissociation) is 0.000143 s⁻¹; the on-rate (kon) (as a rule, the second-order rate constant of association) came to 665000 M⁻¹ s⁻¹.

B3: hz10B4m1 (antibody, V domains shown)
VH: B2 VH
VL: B2 VL with N93A
notes: LCDR3 variant of hz10B4 (SSN→SSA); also called hz10B4-VH×hz10B4-Lm1-VL
As for B3, it took 1.89 nM to reach a half-maximal effect in data set [6] (EC50). For the same molecule, in data set [7], the Kd amounted to 0.352 nM, the koff came to 0.000225 s⁻¹ and the kon turned out to be 639000 M⁻¹ s⁻¹.

B4: hz10B4m5 (antibody, V domains shown)
VH: B2 VH
VL: B2 VL with S92G, N93S
notes: LCDR3 variant of hz10B4 (SSN→SGS); also called hz10B4-VH×hz10B4-Lm5-VL
As to B4, in data set [6], the EC50 was 2.25 nM. Besides, in data set [7], the Kd is 0.568 nM, the koff worked out at 0.000336 s⁻¹ and the kon was 592000 M⁻¹ s⁻¹.

B5: hz10B4m3 (antibody, V domains shown)
VH: B2 VH
VL: B2 VL with N93Q
notes: LCDR3 variant of hz10B4 (SSN→SSQ); also called hz10B4-VH×hz10B4-Lm3-VL
In the case of B5, in data set [6], the half-maximal effective concentration (EC50) stood at 1.59 nM. In addition, in data set [7], the Kd is 0.422 nM, the dissociation rate constant (koff) was 0.000281 s⁻¹ and the kon was 666000 M⁻¹ s⁻¹.

B6: hz10B4m4 (antibody, V domains shown)
VH: B2 VH
VL: B2 VL with N93G
notes: LCDR3 variant of hz10B4 (SSN→SSG); also called hz10B4-VH×hz10B4-Lm4-VL
Take B6: the EC50 in data set [6] turned out to be 16.9 nM. Besides, in data set [7], the Kd was found to be 0.831 nM, the koff is 0.00042 s⁻¹ and the kon came out at 505000 M⁻¹ s⁻¹.

B7: hz10B4m2 (antibody, V domains shown)
VH: B2 VH
VL: B2 VL with S92A, N93S
notes: LCDR3 variant of hz10B4 (SSN→SAS); also called hz10B4-VH×hz10B4-Lm2-VL
In data set [6], B7 had an EC50 of 1.45 nM. In addition, in data set [7], the dissociation constant Kd amounted to 0.381 nM, the koff turned out to be 0.000287 s⁻¹ and the kon was 755000 M⁻¹ s⁻¹.

Source of the values: EP4721767A1 (priority 2023, dated 2024).
